Like-named read-outs stand apart in the source and are kept apart here.
What was measured:
mouse NPT2b = molecular target: T1, mouse NPT2b (Mus musculus, UniProt Q9DBP0); assay: 33P-phosphate uptake in CHO cells expressing mouse NPT2b; assay type: cell-based; details: geometric mean; 2.5 µM phosphate, 60 min, room temperature
T1 construct: Full-Length cDNA Cloning and Generation of Cell Lines Over-Expressing Human, Mouse, and Rat NPT2b; host or cells: CHO-K1 / T-REx CHO, pcDNA5/TO, tetracycline-induced
T1 sequence (Q9DBP0 1-697): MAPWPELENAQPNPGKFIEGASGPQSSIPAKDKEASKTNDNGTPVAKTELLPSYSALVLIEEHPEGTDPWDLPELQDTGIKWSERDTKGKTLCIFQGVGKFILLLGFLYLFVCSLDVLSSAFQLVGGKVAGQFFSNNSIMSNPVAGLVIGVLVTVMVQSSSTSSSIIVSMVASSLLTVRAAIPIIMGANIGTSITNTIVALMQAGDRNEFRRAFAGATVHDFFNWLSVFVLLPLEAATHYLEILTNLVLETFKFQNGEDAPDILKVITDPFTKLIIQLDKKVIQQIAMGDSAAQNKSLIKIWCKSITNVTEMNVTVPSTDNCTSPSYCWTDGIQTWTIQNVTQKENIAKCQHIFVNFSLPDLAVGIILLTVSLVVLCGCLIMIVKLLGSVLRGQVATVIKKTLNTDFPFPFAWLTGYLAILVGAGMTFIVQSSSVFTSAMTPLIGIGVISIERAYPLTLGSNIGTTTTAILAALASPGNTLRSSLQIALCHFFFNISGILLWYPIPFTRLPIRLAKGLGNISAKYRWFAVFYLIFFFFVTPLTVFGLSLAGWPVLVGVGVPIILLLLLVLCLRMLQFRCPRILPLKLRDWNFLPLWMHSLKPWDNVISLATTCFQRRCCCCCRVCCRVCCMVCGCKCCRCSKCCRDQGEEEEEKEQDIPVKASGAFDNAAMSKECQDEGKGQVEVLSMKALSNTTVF
Method: T‐Rex™ Chinese Hamster Ovary cells (CHO; Thermo Fisher Scientific) stably expressing human, mouse, or rat NPT2b under a tetracycline‐inducible promoter were generated using standard cDNA transfection and clone selection procedures (see Supporting Information). Cells were plated in 96‐well CytoStar‐T® scintillating microplates and were incubated overnight in growth media plus 100 ng/ml of tetracycline to induce expression of NPT2b. The next day, cells were washed 3 times with 200 µl assay buffer (137 mM NaCl, 5.4 mM KCl, 2.8 mM CaCl2, 1.2 mM MgSO4, and 14 mM Tris‐HCl buffer, pH 7.5). LY3358966 serially diluted 1‐to‐3 in DMSO was added to cells with assay buffer. An equal volume of H3 ^33PO4 (PerkinElmer) in assay buffer supplemented with 5 µM potassium phosphate was then added to initiate radiolabeled phosphate (^33P‐phosphate) uptake. The final phosphate concentration was 2.5 µM and the final DMSO concentration was 1%. Following a 60‐min incubation at room temperature, an equal volume of assay buffer containing 400 µM phloretin was added to stop ^33P‐phosphate uptake. The plate was immediately read on a Wallac MicroBeta Trilux liquid scintillation counter. Percent inhibition at all concentrations tested was calculated, and IC50 values were then determined using a 4‐parameter logistic curve fitting equation.
The vendors for target cDNA are listed in supplemental Table 1. […]

[1] = Unbound fraction in plasma by equilibrium dialysis; assay type: in vitro ADME; details: mouse plasma
Method: Male CD‐1 male mice were orally dosed with 1, 3, or 10 mg/kg API of LY3358966 SDD dissolved in water or were IV dosed with 1 mg/kg LY3358966 formulated in 25% dimethylacetamide, 15% ethanol, 10% propylene glycol, 25% 2‐pyrrolidone, and 25% water. Each dose group contained six animals. Three animals were bled at 0.25, 0.5, 1, 2, 4, 8, 12, and 24 h, with each animal being bled at alternate time points. Plasma drug levels were determined by HPLC/MS. The unbound fraction of LY3358966 in plasma was determined with equilibrium dialysis and LC‐MS/MS.

intestinal NPT2b = molecular target: T2, intestinal NPT2b (Mus musculus, UniProt Q9DBP0); assay: Acute phosphate uptake into plasma in mice; assay type: in vivo; details: for ED50: mouse, po, read-out: ED50, inhibition of acute phosphate uptake into plasma; for Emax, maximum inhibition of phosphate uptake into plasma: oral
T2 construct: from tissue; host or cells: intestine of live male C57BL/6 mice, oral dosing
T2 sequence (Q9DBP0 1-697): T1 sequence (Q9DBP0 1-697)
Method: Male C57BL/6 male mice (n = 7–9/group) at the age of about 8–9 weeks (21–29 g) were fasted overnight and throughout the study. Mice were dosed orally with varying doses of LY3358966 SDD dissolved in water or a PVP‐VA vehicle control. Fifteen minutes later, a radioactive phosphate dosing solution (200 µl of 16.25 mM Na2HPO4, 0.9% saline, pH 7.4 supplemented with about one million dpm of H3 ^33PO4) was given by oral gavage. This dose of phosphate was chosen because it approximates the mouse equivalent of the amount of bioavailable phosphate in a human meal which is 4 mg/kg phosphorus, or 320 mg phosphorus for an 80 kg person on a phosphate restricted diet. Fifteen minutes later, blood was collected and radioactivity in the plasma was determined by scintillation counting. The inhibition of acute phosphate uptake into plasma by LY3358966 was determined by comparing the counts in the plasma from LY3358966‐treated animals to that in the plasma of the vehicle‐treated animals. ED50 values were then determined with a 4‐parameter logistic curve fitting model using GraphPad Prism 7.04.
To test the ability of LY3358966 to inhibit intestinal NPT2b activity in mice over time, the above mice were bled again at 3 h post compound dose to determine the residual radioactivity in the plasma. At 4 h post compound dose, the animals were again dosed with phosphate using threefold more H3 ^33PO4 than used in the first oral dose. Fifteen minutes later, blood was collected and radioactivity in the plasma was used to calculate LY3358966 inhibition of phosphate uptake into plasma. For this calculation, the residual counts at 3 h were first subtracted from the final counts at 4 h. The 3‐h counts were typically <15% of the 4‐h counts.

Solubility at stomach pH = assay type: physicochemical; details: at the pH of the stomach

IC50 (mouse NPT2b): 43.9 nM | fraction unbound [1]: 0.005 | ED50 (intestinal NPT2b; 15 min post LY3358966 dose): 0.15 mg/kg | ED50 (intestinal NPT2b; 4 h post LY3358966 dose): 1.1 mg/kg | Emax, maximum inhibition of phosphate uptake into plasma (intestinal NPT2b; 15 min post LY3358966 dose): 74% | Emax, maximum inhibition of phosphate uptake into plasma (intestinal NPT2b; 4 h post LY3358966 dose): 79% | solubility (Solubility at stomach pH): minimal solubility
Compound: CC1(C)CN(C(=O)NCCCCO)CCN1Cc1cccc(C(=O)Nc2sc3c(c2C(=O)Nc2cc(F)c(CCc4ccc(C(=O)O)cc4)c(F)c2)CCCC3)c1 [LY3358966, 4‐[2‐[2,6‐difluoro‐4‐[[2‐[[3‐[[4‐(4‐hydroxybutylcarbamoyl)‐2,2‐dimethyl‐piperazin‐1‐yl]methyl]benzoyl]amino]‐4,5,6,7‐tetrahydrobenzothiophene‐3‐carbonyl]amino]phenyl]ethyl]benzoic acid]

From publication PMC8863579, “Effects of pharmacological inhibition of the sodium‐dependent phosphate cotransporter 2b (NPT2b) on intestinal phosphate absorption in mouse and rat models” (Pharmacology Research & Perspectives, 2022)
